Laboratory results published in ChEMBL document CHEMBL5346964, “Discovery of LNP1892: A Precision Calcimimetic for the Treatment of Secondary Hyperparathyroidism” (J Med Chem, 2023).

Tests used:
[1] = test system: Rattus norvegicus; assay: Acute effect on parathyroid hormone in overnight fasted adenine diet-induced chronic kidney disease Wistar rat model assessed as reduction in plasma PTH level at 3 mg/kg, po measured after 4 hrs of post treatment by sandwich ELISA analysis; assay type: functional; parameters: scale not given: the % may be the effect or the level left
[2] = Cmax in mouse at 50 mg/kg per day, po via gavage administered for 13 weeks; assay type: ADME, organism-based; parameters: time 13 weeks, dose 50 mg/kg, route po; conditions: in vivo
[3] = Metabolic stability in mouse liver S9 fraction measured upto 60 mins by LC-MS/MS method; assay type: ADME, subcellular; conditions: read-out: Stability
[4] = Metabolic stability in dog liver cytosol measured upto 60 mins by LC-MS/MS method; assay type: ADME, subcellular, Canis lupus familiaris; conditions: read-out: Stability
[5] = Chemical stability of the compound in FeSSIF measured after 0.5 to 4 hrs; assay type: physicochemical; conditions: simulated gi fluid; time 0.5-4 hrs
[6] = target: T1, Cytochrome P450 2A6 (Homo sapiens, UniProt P11509); assay: Inhibition of CYP2A6 in human liver microsomes preincubated for 5 mins followed by NADPH addition by LC-MS/MS analysis; assay type: ADME, Microsome
T1 sequence (P11509 whole entry): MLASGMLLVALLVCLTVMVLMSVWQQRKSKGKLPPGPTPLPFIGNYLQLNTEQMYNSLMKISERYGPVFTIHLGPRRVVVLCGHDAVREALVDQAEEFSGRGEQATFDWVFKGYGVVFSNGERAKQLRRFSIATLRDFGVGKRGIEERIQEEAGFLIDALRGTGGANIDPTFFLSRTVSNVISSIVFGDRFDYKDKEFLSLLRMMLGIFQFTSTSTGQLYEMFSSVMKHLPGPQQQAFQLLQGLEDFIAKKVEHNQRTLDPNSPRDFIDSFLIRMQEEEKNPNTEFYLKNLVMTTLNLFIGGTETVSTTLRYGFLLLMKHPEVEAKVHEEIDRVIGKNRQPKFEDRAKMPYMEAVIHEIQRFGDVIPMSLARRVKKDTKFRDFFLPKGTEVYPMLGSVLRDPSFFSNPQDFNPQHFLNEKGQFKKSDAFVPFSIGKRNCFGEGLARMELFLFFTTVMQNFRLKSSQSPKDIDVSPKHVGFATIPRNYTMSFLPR

[7] = Kinetic solubility of compound in 20% HP-beta-CD upto 500 uM measured after 16 hrs under shaking condition by UV-visible method; assay type: physicochemical; conditions: read-out: Kinetic_solubility
[8] = Kinetic solubility of compound upto 500 uM at pH 4 measured after 16 hrs under shaking condition by UV-visible method; assay type: physicochemical; conditions: buffer, read-out: Kinetic_solubility
[9] = Cmax in cynomolgus monkey at 5 mg/kg, po measured upto 24 hrs by LC/MS-MS analysis; assay type: ADME, organism-based, Macaca fascicularis; parameters: time < 24 hrs, dose 5 mg/kg, route po; conditions: in vivo
[10] = Stability in rat plasma measured up to 4 hrs by LC-MS/MS method; assay type: ADME, cell-free; conditions: read-out: Stability
[11] = Toxicity in rat assessed as maximum tolerated dose; conditions: in vivo
[12] = Drug excretion in BALB/c mouse assessed as drug recovery in urine at 10 mg/kg, po; assay type: ADME, organism-based; conditions: read-out: Drug recovery
[13] = test system: Rattus norvegicus; assay: Subchronic effect on parathyroid hormone in overnight fasted adenine diet-induced chronic kidney disease Wistar rat model plasma assessed as reduction in plasma PTH level at 0.1 mg/kg, po qd measured after 27 days of post treatment by sandwich ELISA analysis; assay type: functional; parameters: scale not given: the % may be the effect or the level left; conditions: time 27 day
[14] = test system: Rattus norvegicus; assay: Acute effect on parathyroid hormone in overnight fasted adenine diet-induced chronic kidney disease Wistar rat model assessed as reduction in plasma PTH level at 10 mg/kg, po measured after 4 hrs of post treatment by sandwich ELISA analysis; assay type: functional; parameters: scale not given: the % may be the effect or the level left
[15] = AUC in BALB/c mouse at 10 mg/kg, po measured upto 24 hrs by LC/MS-MS analysis; assay type: ADME, organism-based; parameters: time < 24 hrs, dose 10 mg/kg, route po; conditions: in vivo
[16] = Cmax in rat at 50 mg/kg per day, po via gavage administered for 2 weeks; assay type: ADME, organism-based; parameters: dose 50 mg/kg, time 2 weeks, route po; conditions: in vivo
[17] = target: hERG (Homo sapiens, UniProt Q12809); assay: Inhibition of hERG at 10 uM relative to control; assay type: toxicity
Sequence of hERG (Q12809 whole entry): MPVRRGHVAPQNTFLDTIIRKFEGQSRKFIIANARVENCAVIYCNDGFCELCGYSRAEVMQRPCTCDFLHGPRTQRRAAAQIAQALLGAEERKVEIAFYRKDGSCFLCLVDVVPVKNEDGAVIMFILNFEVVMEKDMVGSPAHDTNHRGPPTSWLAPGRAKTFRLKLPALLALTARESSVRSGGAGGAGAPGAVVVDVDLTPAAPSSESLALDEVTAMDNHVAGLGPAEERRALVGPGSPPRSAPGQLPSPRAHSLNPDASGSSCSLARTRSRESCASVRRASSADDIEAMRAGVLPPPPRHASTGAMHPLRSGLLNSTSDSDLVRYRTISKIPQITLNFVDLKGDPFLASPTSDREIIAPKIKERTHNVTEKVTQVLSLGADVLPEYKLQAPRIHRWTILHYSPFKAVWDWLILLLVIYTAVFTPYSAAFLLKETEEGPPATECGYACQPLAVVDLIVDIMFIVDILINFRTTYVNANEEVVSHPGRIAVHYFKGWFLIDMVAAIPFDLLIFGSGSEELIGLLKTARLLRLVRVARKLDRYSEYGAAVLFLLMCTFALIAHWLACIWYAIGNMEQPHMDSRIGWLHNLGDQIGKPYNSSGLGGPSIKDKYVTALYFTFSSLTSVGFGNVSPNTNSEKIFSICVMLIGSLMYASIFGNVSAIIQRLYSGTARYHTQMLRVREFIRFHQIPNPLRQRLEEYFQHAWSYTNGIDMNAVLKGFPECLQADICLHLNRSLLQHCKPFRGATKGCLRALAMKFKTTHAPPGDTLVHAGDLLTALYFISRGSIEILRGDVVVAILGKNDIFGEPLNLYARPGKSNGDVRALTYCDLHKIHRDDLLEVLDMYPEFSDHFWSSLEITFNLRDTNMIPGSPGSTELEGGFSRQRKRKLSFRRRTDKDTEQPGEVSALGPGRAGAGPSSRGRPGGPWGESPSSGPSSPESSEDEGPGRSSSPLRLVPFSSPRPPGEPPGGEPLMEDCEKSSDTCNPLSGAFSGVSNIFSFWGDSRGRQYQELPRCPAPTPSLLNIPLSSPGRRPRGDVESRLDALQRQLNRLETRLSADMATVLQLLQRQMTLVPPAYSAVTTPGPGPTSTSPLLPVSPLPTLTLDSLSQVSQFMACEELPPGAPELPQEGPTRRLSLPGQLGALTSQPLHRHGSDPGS

[18] = Effect on parathyroid hormone in overnight fasted Sprague-Dawley rat assessed as reduction in plasma PTH level at 10 mg/kg, po measured after 6 hrs of post treatment by sandwich ELISA analysis (reference value: 33%); assay type: functional; parameters: scale not given: the % may be the effect or the level left
[19] = Half life in BALB/c mouse at 1 mg/kg, iv measured upto 24 hrs by LC/MS-MS analysis; assay type: ADME, organism-based; conditions: in vivo
[20] = AUClast in Sprague-Dawley rat at 1 mg/kg, iv measured upto 24 hrs by LC-MS/MS analysis; assay type: ADME, organism-based; parameters: dose 1 mg/kg, time < 24 hrs, route iv; conditions: in vivo
[21] = Volume of distribution at steady state in Sprague-Dawley rat at 1 mg/kg, iv measured upto 24 hrs by LC/MS-MS analysis; assay type: ADME, organism-based; conditions: in vivo, read-out: Vdss
[22] = Stability in mouse plasma measured up to 4 hrs by LC-MS/MS method; assay type: ADME, cell-free; conditions: read-out: Stability
[23] = AUClast in Sprague-Dawley rat at 10 mg/kg, po administered as solution measured upto 24 hrs by LC-MS/MS analysis; assay type: ADME, organism-based; parameters: dose 10 mg/kg, time < 24 hrs, route po; conditions: in vivo
[24] = Efflux ratio of apparent permeability across basolateral to apical over apical to basolateral membrane in human Caco-2 cells at 5 uM measured after 120 mins by LC-MS/MS analysis; assay type: ADME, cell-based
[25] = Stability in monkey plasma measured up to 4 hrs by LC-MS/MS method; assay type: ADME, cell-free, Macaca mulatta; conditions: rhesus monkey, read-out: Stability
[26] = Oral bioavailability in Beagle dog at 5 mg/kg measured upto 24 hrs by LC/MS-MS analysis; assay type: ADME, organism-based, Canis lupus familiaris; conditions: in vivo
[27] = Metabolic stability in human liver S9 fraction measured upto 60 mins by LC-MS/MS method; assay type: ADME, subcellular; conditions: read-out: Stability
[28] = Volume of distribution at steady state in Sprague-Dawley rat at 1 mg/kg, iv measured upto 24 hrs by LC-MS/MS analysis; assay type: ADME, organism-based; conditions: in vivo, read-out: Vdss
[29] = Tmax in Beagle dog at 5 mg/kg, po measured upto 24 hrs by LC/MS-MS analysis; assay type: ADME, organism-based, Canis lupus familiaris; conditions: in vivo
[30] = Kinetic solubility of compound upto 500 uM at pH 9 measured after 16 hrs under shaking condition by UV-visible method; assay type: physicochemical; conditions: buffer, read-out: Kinetic_solubility
[31] = test system: Rattus norvegicus; assay: Acute effect on parathyroid hormone in overnight fasted adenine diet-induced chronic kidney disease Wistar rat model assessed as reduction in plasma PTH level at 3 mg/kg, po measured after 1 hrs of post treatment by sandwich ELISA analysis; assay type: functional; parameters: scale not given: the % may be the effect or the level left
[32] = Effect on parathyroid hormone in overnight fasted Sprague-Dawley rat assessed as reduction in plasma PTH level at 3 mg/kg, po measured after 6 hrs of post treatment by sandwich ELISA analysis; assay type: functional; parameters: scale not given: the % may be the effect or the level left
[33] = Volume of distribution at steady state in Sprague-Dawley rat at 10 mg/kg, po administered as solution measured upto 24 hrs by LC-MS/MS analysis; assay type: ADME, organism-based; conditions: in vivo
[34] = Half life in Beagle dog at 1 mg/kg, iv measured upto 24 hrs by LC/MS-MS analysis; assay type: ADME, organism-based, Canis lupus familiaris; conditions: in vivo
[35] = Cmax in human at 25 mg/kg, po administered as multiple dose on day 8; assay type: ADME, organism-based; parameters: dose 25 mg/kg, route po; conditions: in vivo
[36] = Plasma clearance in cynomolgus monkey at 1 mg/kg, iv measured upto 24 hrs by LC/MS-MS analysis; assay type: ADME, organism-based, Macaca fascicularis
[37] = Microsomal stability in human liver microsomes assessed as parent compound remaining at 1 uM measured upto 30 mins in presence of NADPH by LC-MS/MS analysis; assay type: ADME, Microsome; conditions: liver microsomes, read-out: Stability
[38] = AUC in Sprague-Dawley rat at 10 mg/kg, po measured upto 24 hrs by LC/MS-MS analysis; assay type: ADME, organism-based; parameters: time < 24 hrs, dose 10 mg/kg, route po; conditions: in vivo

Question: Which Activity [1] does the source give for `Cc1ccc([C@@H]2C[C@H](CN[C@H](C)c3cccc4ccccc34)Oc3ccccc32)cc1C(=O)O.Cl` here?
Answer: 89%

Question: What about the Cmax [2] of the same compound?
Answer: 34800 ng/mL

Question: And the remaining at 1 h [3]?
Answer: > 80%

Question: And the remaining at 1 h [4]?
Answer: > 80%

Question: And the Stability [5]?
Answer: Stable

Question: And the IC50 [6]?
Answer: 41 µM

Question: And the solubility kinetic at 16 h, 500 µM [7]?
Answer: > 200 µM

Question: And the solubility kinetic at 16 h, 500 µM [8]?
Answer: > 300 µM

Question: What about the Cmax [9] of the same compound?
Answer: 400 nM

Question: What about the remaining at 4 h [10] of the same compound?
Answer: > 80%

Question: What about the MTD [11] of the same compound?
Answer: 1000 mg/kg

Question: And the dose excreted [12]?
Answer: < 1%

Question: And the Activity [13]?
Answer: 62%

Question: What about the Activity [14] of the same compound?
Answer: 97%

Question: And the AUC at 24 h [15]?
Answer: 171 µM·h

Question: What about the Cmax [16] of the same compound?
Answer: 7170 ng/mL

Question: And the inhibition at 10 µM [17]?
Answer: 4%

Question: And the Activity [18]?
Answer: 45%

Question: What about the half-life [19] of the same compound?
Answer: 3 h

Question: And the AUC(0-t) at 24 h [20]?
Answer: 7 µM·h

Question: And the Vd [21]?
Answer: 1 L/kg

Question: What about the remaining at 4 h [22] of the same compound?
Answer: > 80%

Question: And the AUC(0-t) at 24 h [23]?
Answer: 71 µM·h

Question: What about the efflux ratio at 2 h, 5 µM [24] of the same compound?
Answer: 0.3

Question: What about the remaining at 4 h [25] of the same compound?
Answer: > 80%

Question: What about the bioavailability [26] of the same compound?
Answer: 79%

Question: And the remaining at 1 h [27]?
Answer: > 80%

Question: What about the Vd [28] of the same compound?
Answer: 1 L/kg

Question: And the Tmax [29]?
Answer: 0.7 h

Question: And the solubility kinetic at 16 h, 500 µM [30]?
Answer: > 200 µM

Question: What about the Activity [31] of the same compound?
Answer: 96%

Question: What about the Activity [32] of the same compound?
Answer: 18%

Question: What about the Vdss [33] of the same compound?
Answer: 0.6 L/kg

Question: And the half-life [34]?
Answer: 5 h

Question: And the Cmax [35]?
Answer: 463 ng/mL

Question: What about the clearance [36] of the same compound?
Answer: 151 mL/min/kg

Question: And the remaining at 0.5 h, 1 µM [37]?
Answer: 73%

Question: What about the AUC at 24 h [38] of the same compound?
Answer: 71 µM·h
